{"source": "patent US5798372A", "about": "“Method for preventing onset of restenosis after angioplasty employing a retinoid” (Allergan, priority 1997, dated 1998)", "key": {"[1]": {"tested_on": "endothelial cells (canine aorta)", "assay": "Serum (1%)-induced endothelial cell proliferation, 3H-thymidine incorporation", "type": "cell-based", "conditions": "Canis lupus familiaris, Endothelial cell; serum induced; Table 3; read-out: ED50 FOR ENDOTHELIAL Cells, Serum", "description": "(§1) The effect of 1% serum on DNA synthesis by endothelial or smooth muscle cells using ^3 H-thymidine incorporation was measured. For measuring the effectiveness of retinoids in inhibiting endothelial or smooth muscle cell proliferation induced by certain mitogens, i.e., serotonin or β-FGF the indicated concentrations were added to the media instead of 1% serum. Primary cells isolated from canine aorta were used for these studies. Unlike the typical cell lines (e.g. NIH 3T3 cells, etc.) 6-7 weeks are required to isolate and grow these primary cells in sufficient number to perform a single experiment. For the following studies, the primary cells (passages 2-4) were plated on 35×10 mm tissue culture dishes in 10% fetal bovine serum (FBS) and incubated. After 72 hours of growth the medias was replaced with 0.1% FBS for synchronization and incubated for additional 72 hours. Then 1% serum was added and incubated for 20 hours followed by the addition of 1μCi of ^3 H-thymidine. Four hours after the addition of 3H-thymidine the DNA was precipitated and the amount of ^3 H-thymidine incorporated was measured. This value is reported as the serum or serotonin or β-FGF stimulated value for cellular proliferation and is expressed as a percentage of baseline ^3 H-thymidine incorporation.\n(§2) To examine the antiproliferative effect of retinoids, they were dissolved in 100% ethanol and then added at the indicated final concentrations. The compounds were added at the time of adding 1% serum or serotonin or β-FGF to stimulate the cells. (The maximal final concentration of ethanol in culture media was 1% which is non-cytotoxic to endothelial or smooth muscle cells). After 20 hours of incubation with retinoids and 1% serum or serotonin or β-FGF, the ^3 H-thymidine incorporation was measured.\n(§3) In this experimental dosages ranging between 0.01 and 100 μM were evaluated for the effect of AGN 191183 on cell growth.\n(§4) The other retinoids, disclosed above, were also tested for their effect on smooth muscle and endothelial cell growth at the same dosages as for AGN 191183. Table 2 reports the ED50 for each of these retinoids."}, "[2]": {"tested_on": "smooth muscle cells (canine aorta)", "assay": "Serum (1%)-induced smooth muscle cell proliferation, 3H-thymidine incorporation", "type": "cell-based", "conditions": "Canis lupus familiaris; serum induced; Table 3; read-out: ED50 FOR SMOOTH MUSCLE CELLS, Serum", "description": "as §1, §2, §3, §4"}, "[3]": {"tested_on": "smooth muscle cells (canine aorta)", "assay": "Serotonin-induced smooth muscle cell proliferation, 3H-thymidine incorporation", "type": "cell-based", "conditions": "Canis lupus familiaris, Table 3, read-out: ED50 FOR SMOOTH MUSCLE CELLS, Serotonin", "description": "as §1\nas §2, with “(The maximal final concentration of ethanol in culture media was 1% which is non-cytotoxic to endothelial or smooth muscle cells).” left out\n(§5) Certain of the retinoids were then tested for mitogen-induced cellular proliferation, utilizing serotonin (5HT) and β-FGF as such mitogens. In this testing, as reported in Table 3, below, the same dosages were evaluated for their effect on mitogen-induced cellular proliferation (The results are reported as ED50 and compared to the ED50 for serum-induced smooth muscle and endothelial cell growth)."}, "[4]": {"tested_on": "smooth muscle cells (canine aorta)", "assay": "β-FGF-induced smooth muscle cell proliferation, 3H-thymidine incorporation", "type": "cell-based", "conditions": "Canis lupus familiaris, Table 3, read-out: ED50 FOR SMOOTH MUSCLE CELLS, β-FGF", "description": "as §1\nas §2, with “(The maximal final concentration of ethanol in culture media was 1% which is non-cytotoxic to endothelial or smooth muscle cells).” left out\nas §5"}, "[5]": {"tested_on": "endothelial cells (canine aorta)", "assay": "β-FGF-induced endothelial cell proliferation, 3H-thymidine incorporation", "type": "cell-based", "conditions": "Canis lupus familiaris, Table 3, read-out: ED50 FOR ENDOTHELIAL Cells, β-FGF", "description": "as §1\nas §2, with “(The maximal final concentration of ethanol in culture media was 1% which is non-cytotoxic to endothelial or smooth muscle cells).” left out\nas §5"}, "[6]": {"tested_on": "cellular proliferation at the site of vascular injury (balloon angioplasty)", "assay": "Rabbit model of angioplasty-induced arterial injury, in vivo 3H-thymidine incorporation", "design": "species or system New Zealand white rabbits", "conditions": "10 mg/kg IP daily", "from_the_text": "There has been interest in attempting to reduce the incidence of restenosis by minimizing the trauma of angioplasty. […] However, a similar relationship between the degree of injury and restenosis has not been documented with conventional balloon angioplasty. In order to better characterize the time course and degree of cellular proliferation resulting from vascular injury, the effect of retinoids on the in vivo incorporation of 3H-thymidine in a rabbit model of arterial injury was studied. Varying degrees of injury were produced including both simple de-endothelialization of the intima as well as stretch injury of the vessel by conventional angioplasty.\n3.0-3.5 kg male, New Zealand white rabbits underwent standardized femoral artery injury. Arterial access was obtained through the right carotid artery which was ligated after the procedure. Heparin (100 U/kg IV) was given once arterial access was obtained. Injury was accomplished by the following method:\n1. […]\nArterial specimens were then thawed and stripped of all adventitia. […] The samples were neutralized with 0.5N HCl and counted using multisol scintillation fluid.\nUsing the above described model of angioplasty induced restenosis it was determined whether chronic treatment with all trans retinoic acid can attenuate the cellular proliferation of the site of vascular injury. […]"}, "[7]": {"tested_on": "endothelial cells (canine aorta)", "assay": "Serotonin-induced endothelial cell proliferation, 3H-thymidine incorporation", "type": "cell-based", "conditions": "Canis lupus familiaris, Table 3, read-out: ED50 FOR ENDOTHELIAL Cells, Serotonin", "description": "as §1\nas §2, with “(The maximal final concentration of ethanol in culture media was 1% which is non-cytotoxic to endothelial or smooth muscle cells).” left out\nas §5"}}}
{"compound": "CC1=C(/C=C/C(C)=C/C=C/C(C)=C/C(=O)O)C(C)(C)CCC1", "note": "[AGN 100335, (E)-3,7-dimethyl-9-(2,6,6-trimethyl-1-cyclohexen-1-yl)-2,4,6,8-nonatetraenoic acid]", "values": [{"measurement": "IC50", "setting": "[1]", "value": 28000, "unit": "nM"}, {"measurement": "IC50", "setting": "[2]", "value": 35800, "unit": "nM"}, {"measurement": "IC50", "setting": "[3]", "value": 47, "unit": "nM"}, {"measurement": "IC50", "setting": "[4]", "value": "> 100000", "unit": "nM"}, {"measurement": "IC50", "setting": "[5]", "value": 9, "unit": "nM"}, {"measurement": "animals receiving retinoic acid that died before the study was completed", "setting": "[6]", "value": "2 out of 4"}, {"measurement": "inhibition of cellular proliferation following angioplasty", "setting": "[6]; 6 days pretreatment and days 7-9, very small number of animals", "value": "appeared to inhibit the development of cellular proliferation following angioplasty"}, {"measurement": "IC50", "setting": "[7]", "value": 25, "unit": "nM"}]}
